Assay results taken from patent US8815503B2, “Compositions and methods for immunostimulatory RNA oligonucleotides” (Rheinische Friedrich-Wilhelms-Universitat Bonn, priority 2005, dated 2014).

Test system: PBMC
Experiment: 193 ssRNA 4mer-motif library screen: IL-12 (IL-12p40) production in PBMC of six donors, poly-L-Arg complexation, ELISA at 44 hours, IL-12 index and adjusted IL-12 index
Format: cell-based, human
Set-up: key to Adjusted IL-12 index Mean: IL-12 index (ratio to 9.2sense) minus donor mean, averaged over 6 donors
Conditions: for Adjusted IL-12 index Mean: 193 ssRNA oligonucleotide library, data from six individual donors summarized, ascending order
Protocol: FIG. 9: PBMC of six different healthy donors were isolated and stimulated with poly-L-arginine complexed ssRNA oligonucleotides in duplicates. 44 hours after stimulation IL-12p40 production was assessed in supernatant via ELISA. For all tested ssRNA oligonucleotides (table 3), the mean values of the measured duplicates were normalized to the positive control ssRNA oligonucleotide 9.2sense (5′-AGCUUAACCUGUCCUUCAA (SEQ ID NO: 194)) by dividing the mean value of tested oligonucleotide by the mean value of 9.2sense (=IL-12 index of a given oligonucleotide). Next, all individual IL-12 indices were adjusted to the mean value of all IL-12 indices by subtracting the mean value of all IL-12 indices from the individual IL-12 index of a given oligonucleotide (=adjusted IL-12 index). Data from six individual donors were summarized and were assorted in ascending order displaying the corresponding SEM (for a complete listing including numerical data see table 4). FIG. 9A discloses SEQ ID NOS 460-509, respectively, in order of appearance. FIG. 9B discloses SEQ ID NOS 510-559, respectively, in order of appearance. FIG. 9C discloses SEQ ID NOS 560-609, respectively, in order of appearance. FIG. 9D discloses SEQ ID NOS 610-652, respectively, in order of appearance.
All 193 ssRNA oligonucleotides were tested on PBMC of six individual healthy donors using poly-L-Arg for complexation. At 44 hours after stimulation with RNA oligonucleotides, supernatants were collected and IL-12 production was measured by ELISA. Prior to statistical analysis the raw data were processed as follows: for each cell culture plate the mean IL-12 value of the experimental duplicates for each tested ssRNA oligonucleotide were normalized to the ssRNA oligonucleotide RNA9.2sense (5′-AGCUUAACCUGUCCUUCAA-3′ (SEQ ID NO: 194)). This standard RNA oligonucleotide was included as a positive control on all cell culture plates. Normalization was performed by calculating the ratio of IL-12 induced by the tested oligonucleotide and IL-12 induced by the standard oligonucleotide RNA9.2sense. Thus, for each tested oligonucleotide in an individual donor a mean ratio of IL-12 induction was obtained. In the following, this mean of the ratios is referred to as IL-12 index (one value of IL-12 index per donor). […] The corresponding IL-12 index of oligonucleotide ANP175 for donor 3 was calculated to be 1.90 (=1725 pg/ml divided by 908 pg/ml).
Next, the means of all IL-12 indices for every individual donor were calculated. Then the adjusted IL-12 indices were calculated as IL-12 index minus the mean of all IL-12 indices of one individual donor. […] The adjusted IL-12 index of ANP175 was calculated: 1.90 minus 0.44=1.46. The adjusted IL-12 indices from all six donors were summarized by calculating the means and the corresponding standard error of mean. The data are depicted in ascending order (FIG. 9A, B, C, D). The adjusted IL-12 indices of the top thirty ssRNA oligonucleotides of all six donors were compared using a two-tailed Student's t-test (FIG. 10). For most combinations tested, a significant difference was observed when the interval between the analyzed pairs was at least eight or nine places in the assortment.

AAAAAAACAAGAAAAAAAA (RNA, backbone not given here) [ANP-Oligo 051]
Adjusted IL-12 index Mean: −0.66

AAAAAAACGUCAAAAAAAA (RNA, backbone not given here) [ANP-Oligo 083]
Adjusted IL-12 index Mean: −0.27

AAAAAAAACUCAAAAAAAA (RNA, backbone not given here) [ANP-Oligo 023]
Adjusted IL-12 index Mean: −0.41

AAAAAAACUUUAAAAAAAA (RNA, backbone not given here) [ANP-Oligo 097]
Adjusted IL-12 index Mean: −0.1

AAAAAAAAUAAAAAAAAAA (RNA, backbone not given here) [ANP-Oligo 004]
Adjusted IL-12 index Mean: −0.4

AAAAAAAUUGCAAAAAAAA (RNA, backbone not given here) [ANP-Oligo 188]
Adjusted IL-12 index Mean: 1.62

AAAAAAAAGCAAAAAAAAA (RNA, backbone not given here) [ANP-Oligo 008]
Adjusted IL-12 index Mean: −0.61

AAAAAAAAGUUAAAAAAAA (RNA, backbone not given here) [ANP-Oligo 037]
Adjusted IL-12 index Mean: 0.21

AAAAAAAUUUUAAAAAAAA (RNA, backbone not given here) [ANP-Oligo 193]
Adjusted IL-12 index Mean: 0.62

AAAAAAAUGUUAAAAAAAA (RNA, backbone not given here) [ANP-Oligo 181]
Adjusted IL-12 index Mean: 0.79

AAAAAAAGCAGAAAAAAAA (RNA, backbone not given here) [ANP-Oligo 111]
Adjusted IL-12 index Mean: −0.32

AAAAAAAGCCGAAAAAAAA (RNA, backbone not given here) [ANP-Oligo 114]
Adjusted IL-12 index Mean: −0.58

AAAAAAACGAGAAAAAAAA (RNA, backbone not given here) [ANP-Oligo 075]
Adjusted IL-12 index Mean: −0.65

AAAAAAACGACAAAAAAAA (RNA, backbone not given here) [ANP-Oligo 074]
Adjusted IL-12 index Mean: −0.6

AAAAAAAGCGUAAAAAAAA (RNA, backbone not given here) [ANP-Oligo 118]
Adjusted IL-12 index Mean: 0.1

AAAAAAAUCUCAAAAAAAA (RNA, backbone not given here) [ANP-Oligo 167]
Adjusted IL-12 index Mean: 0.37

AAAAAAAGGCGAAAAAAAA (RNA, backbone not given here) [ANP-Oligo 126]
Adjusted IL-12 index Mean: −0.54

AAAAAAAACAGAAAAAAAA (RNA, backbone not given here) [ANP-Oligo 015]
Adjusted IL-12 index Mean: −0.65

AAAAAAAUACCAAAAAAAA (RNA, backbone not given here) [ANP-Oligo 149]
Adjusted IL-12 index Mean: 0.27

AAAAAAAUUAUAAAAAAAA (RNA, backbone not given here) [ANP-Oligo 184]
Adjusted IL-12 index Mean: 0.56

AAAAAAACAUGAAAAAAAA (RNA, backbone not given here) [ANP-Oligo 060]
Adjusted IL-12 index Mean: −0.46

AAAAAAAACCUAAAAAAAA (RNA, backbone not given here) [ANP-Oligo 019]
Adjusted IL-12 index Mean: −0.51

AAAAAAAAGGCAAAAAAAA (RNA, backbone not given here) [ANP-Oligo 032]
Adjusted IL-12 index Mean: −0.62

AAAAAAAUUUGAAAAAAAA (RNA, backbone not given here) [ANP-Oligo 192]
Adjusted IL-12 index Mean: 0.65

AAAAAAAUCCCAAAAAAAA (RNA, backbone not given here) [ANP-Oligo 161]
Adjusted IL-12 index Mean: −0.42

AAAAAAAAGAGAAAAAAAA (RNA, backbone not given here) [ANP-Oligo 027]
Adjusted IL-12 index Mean: −0.62

AAAAAAAUGGUAAAAAAAA (RNA, backbone not given here) [ANP-Oligo 178]
Adjusted IL-12 index Mean: 3.26 | adjusted IL-12 index (summarized from all six donors): 3.26

AAAAAAAGCCCAAAAAAAA (RNA, backbone not given here) [ANP-Oligo 113]
Adjusted IL-12 index Mean: −0.54

AAAAAAAGGCCAAAAAAAA (RNA, backbone not given here) [ANP-Oligo 125]
Adjusted IL-12 index Mean: −0.54

AAAAAAAUGAUAAAAAAAA (RNA, backbone not given here) [ANP-Oligo 172]
Adjusted IL-12 index Mean: 1.92

AAAAAAAACGUAAAAAAAA (RNA, backbone not given here) [ANP-Oligo 022]
Adjusted IL-12 index Mean: 0.02

AAAAAAAACAUAAAAAAAA (RNA, backbone not given here) [ANP-Oligo 016]
Adjusted IL-12 index Mean: −0.37

AAAAAAAAUGAAAAAAAAA (RNA, backbone not given here) [ANP-Oligo 012]
Adjusted IL-12 index Mean: −0.23

AAAAAAAGUUUAAAAAAAA (RNA, backbone not given here) [ANP-Oligo 145]
Adjusted IL-12 index Mean: 1.32

AAAAAAAUAAGAAAAAAAA (RNA, backbone not given here) [ANP-Oligo 147]
Adjusted IL-12 index Mean: 0.27

AAAAAAACUUCAAAAAAAA (RNA, backbone not given here) [ANP-Oligo 095]
Adjusted IL-12 index Mean: −0.39

AAAAAAAAUGCAAAAAAAA (RNA, backbone not given here) [ANP-Oligo 044]
Adjusted IL-12 index Mean: 0.2

AAAAAAAGAAUAAAAAAAA (RNA, backbone not given here) [ANP-Oligo 100]
Adjusted IL-12 index Mean: 0.01

AAAAAAAAUCUAAAAAAAA (RNA, backbone not given here) [ANP-Oligo 043]
Adjusted IL-12 index Mean: −0.22

AAAAAAAAGUAAAAAAAAA (RNA, backbone not given here) [ANP-Oligo 010]
Adjusted IL-12 index Mean: −0.16

AAAAAAAGUUGAAAAAAAA (RNA, backbone not given here) [ANP-Oligo 144]
Adjusted IL-12 index Mean: 4.39

AAAAAAAUUCUAAAAAAAA (RNA, backbone not given here) [ANP-Oligo 187]
Adjusted IL-12 index Mean: 0.18

AAAAAAAAGAAAAAAAAAA (RNA, backbone not given here) [ANP-Oligo 003]
Adjusted IL-12 index Mean: −0.63

AAAAAAAGCUUAAAAAAAA (RNA, backbone not given here) [ANP-Oligo 121]
Adjusted IL-12 index Mean: 0.24

AAAAAAAGAGUAAAAAAAA (RNA, backbone not given here) [ANP-Oligo 106]
Adjusted IL-12 index Mean: 0.21

AAAAAAAGUAGAAAAAAAA (RNA, backbone not given here) [ANP-Oligo 135]
Adjusted IL-12 index Mean: 0.67

AAAAAAACCCGAAAAAAAA (RNA, backbone not given here) [ANP-Oligo 066]
Adjusted IL-12 index Mean: −0.62

AAAAAAACGGGAAAAAAAA (RNA, backbone not given here) [ANP-Oligo 081]
Adjusted IL-12 index Mean: −0.63

AAAAAAAACCGAAAAAAAA (RNA, backbone not given here) [ANP-Oligo 018]
Adjusted IL-12 index Mean: −0.68

AAAAAAAUAAUAAAAAAAA (RNA, backbone not given here) [ANP-Oligo 148]
Adjusted IL-12 index Mean: 0.7

AAAAAAACUGCAAAAAAAA (RNA, backbone not given here) [ANP-Oligo 092]
Adjusted IL-12 index Mean: 0

AAAAAAAACACAAAAAAAA (RNA, backbone not given here) [ANP-Oligo 014]
Adjusted IL-12 index Mean: −0.64

AAAAAAACGCUAAAAAAAA (RNA, backbone not given here) [ANP-Oligo 079]
Adjusted IL-12 index Mean: −0.09

AAAAAAACCACAAAAAAAA (RNA, backbone not given here) [ANP-Oligo 062]
Adjusted IL-12 index Mean: −0.66

AAAAAAACUGUAAAAAAAA (RNA, backbone not given here) [ANP-Oligo 094]
Adjusted IL-12 index Mean: 0.9

AAAAAAAUGCGAAAAAAAA (RNA, backbone not given here) [ANP-Oligo 174]
Adjusted IL-12 index Mean: 0.28

AAAAAAAACGGAAAAAAAA (RNA, backbone not given here) [ANP-Oligo 021]
Adjusted IL-12 index Mean: −0.63

AAAAAAAGAAGAAAAAAAA (RNA, backbone not given here) [ANP-Oligo 099]
Adjusted IL-12 index Mean: −0.61
